Measured values taken from patent US20100183592A1, “HUMAN EPO RECEPTOR AGONISTS, COMPOSITIONS, METHODS AND USES FOR PREVENTING OR TREATING GLUCOSE INTOLERANCE RELATED CONDITIONS” (priority 2006, published 2010).
Where no end group is shown, it is not given here.

Experiments:
[1] = in vivo; cited from earlier work
[2] = 50% serum; cited from earlier work
EPO receptor = target: T1, EPO receptor (Homo sapiens, UniProt P19235); test: competition with 125I-labeled EPO for binding to the EPO receptor
T1 sequence (P19235 25-508): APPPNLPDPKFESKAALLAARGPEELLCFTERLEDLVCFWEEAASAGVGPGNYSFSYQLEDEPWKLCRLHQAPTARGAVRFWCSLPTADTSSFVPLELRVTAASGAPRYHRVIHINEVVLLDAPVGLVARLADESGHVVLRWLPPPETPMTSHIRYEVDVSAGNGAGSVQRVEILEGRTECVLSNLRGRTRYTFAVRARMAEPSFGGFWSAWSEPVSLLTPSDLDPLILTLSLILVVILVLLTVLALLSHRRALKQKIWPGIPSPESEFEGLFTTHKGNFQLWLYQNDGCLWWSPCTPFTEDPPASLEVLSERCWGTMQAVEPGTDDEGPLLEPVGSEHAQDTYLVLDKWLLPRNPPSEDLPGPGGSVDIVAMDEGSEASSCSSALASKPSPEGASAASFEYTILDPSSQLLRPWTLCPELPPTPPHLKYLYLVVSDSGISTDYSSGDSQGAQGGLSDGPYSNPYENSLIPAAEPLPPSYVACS

normal mice = test: effects on erythropoiesis (hematocrit) in normal mice; assay type: in vivo; conditions: dosed equally / equal activity units
Source text: (§1) In vivo studies were done in normal mice to compare the half-life of EMP-Hinge core mimetibody to that of rHuEPO and to compare their effects on erythropoiesis.

[3] = serum concentrations by ELISA, half-life in normal mice; assay type: in vivo
Protocol: as §1
The serum concentrations of both rHuEPO and EMP-Hinge core mimetibody were measured by ELISA.

[4] = tested on: cells that express the EPO receptor; test: complement lysis of cells that express the EPO receptor; assay type: cell-based; conditions: preliminary studies
Source text: It has been shown that mutation of two […] (L) residues, L234 & L235, in the IgG1 lower hinge region to alanine (A) will abrogate the ability of the immunoglobulin to mediate complement dependent cytotoxicity (CDC) and antibody dependant cellular cytotoxicity (ADCC) (Hezereh et al., 2001, J. Virol., vol. 75 (24), 12161-68). […] This may be due to the low number of receptors that are found on erythroid progenitor cells. In addition the in vivo expansion of erythroid progenitors as evidenced by significant increases in hematocrit supports the possible functional irrelevance of immune effector functions. However, while no effector function associated affects have been observed, there remains an interest in introducing these mutations as a precautionary step.

[5] = tested on: EPO dependent UT-7/EPO cell line; test: in vitro bioactivity assay: viability of rHuEPO-starved UT-7/EPO cells (MTS); assay type: cell-based, human; conditions: for activity compared with rHuEPO: in vitro cell proliferation assay
Protocol: The activity of EMP-Hinge core mimetibody was first tested in an in vitro bioactivity assay. For this assay, the EPO dependent UT-7/EPO cell line, derived from a patient with acute megakaryoblastic leukemia, was used (Komatsu et al., 1993, Blood, vol. 82 (2), 456-464). These cells undergo programmed cell death 48 to 72 hours after withdraw from media supplemented with rHuEPO. Cells that have been incubated in the absence of rHuEPO for 24 hours can be saved if treated with rHuEPO or an EPOR agonist. EMP-Hinge core mimetibody was added to cells starved without rHuEPO and cell viability was determined 48 hours after treatment using the tetrazolium compound MTS (CellTiter 96 Aqueous One Solution, Promega) that is metabolized by living cells to yield a product with an absorbance that can be measured. […] In addition, these same cells were stimulated with EMP-Hinge core mimetibody and tyrosine phosphorylation patterns visualized by running cell lysate through a polyacrylamide gel.

DIO mice [6] = test: fasting blood glucose in DIO mice; assay type: in vivo; conditions: DIO mice, 0.03, 0.1, 0.3 mg/kg i.v., 5 days after dosing
Protocol: (§2) Mice (DIO; n=7) were fasted overnight and fasting blood glucose (FBG) was measured. The animals were randomized based upon FBG and dosed intravenously with EPO (0.03, 0.1, 0.3 mg/kg). An IPGTT (as described above) was done 5 days after dosing. The animals were sacrificed after the IPGTT and whole blood was collected for hematology measurements.
as §2, with “darbepoetin (0.01, 0.03, 0.1” for “EPO (0.03, 0.1, 0.3”, “7” for “5”

DIO mice [7] = test: IPGTT in DIO (diet induced obese) mice; assay type: in vivo; conditions: 5 days after dosing
Protocol: (§3) The experiment described in Example 1 was repeated in DIO (diet induced obese) mice following dosing of CNTO 530 (0.3 mg/kg). This murine model is believed to be more representative of the human disease since the mice become diabetic after being fed a high fat diet (Purina TestDiet #58126 consisting of 60.9% kcal fat and 20.8% kcal carbohydrates). As described in Example 1, an IPGTT was done on the day of dosing and seven days after dosing. The time points during the IPGTT were 15, 30, 60, 90, 120, 150, and 180 minutes after glucose challenge. After the IPGTT was completed on day 7, the mice were sacrificed and whole blood (in EDTA) was collected via cardiac puncture for hematology studies.
(§4) Mice (DIO; n=7) were fasted overnight and fasting blood glucose (FBG) was measured. The animals were randomized based upon FBG. The mice were dosed intravenously with CNTO 530 (0.3 mg/kg) and given glucose intraperitonealy (0.5 mg/g) ten minutes later. Blood glucose was measured at various times (10, 20, 30, 60, 90, 120, 150, 180 minutes after glucose). The IPGTTs were repeated 7, 14, 21, 28, and 35 days after that initial single dose. […]
(§5) Mice (DIO; n=7) were fasted overnight and fasting blood glucose (FBG) was measured. […]
as §5

[8] = tested on: patients with end-stage renal disease; conditions: cited from earlier work
[9] = tested on: patients with baseline HbA1C 6.0 or higher; test: datamining of clinical data (GE Clinical Data Services EMR database), patients prescribed EPO; assay type: in vivo, human; conditions: for magnitude of HbA1C decline: first 3 months after EPO; for fasting blood glucose after EPO: end of time course
Source text: GE Healthcare's Clinical Data Services database contains de-identified, normalized, longitudinal, patient-level Electronic Medical Record data from nearly to 4,000 US based physicians practicing in ambulatory setting who use GE Centricity EMR system. This database contains data on >4.7M patient lives. Average follow up time is approximately 3 years. The database contains information on Patient demographics, medical history, visit type, clinical observations (including Diagnosis codes), laboratory test results and medications prescribed. JNJ has purchased a license to this dataset and mined it to look for outcomes on diabetic parameters in patients who were prescribed EPO for anemia.
Population was further filtered to identify patients with Pre-EPO measurements followed by post-EPO measurements on the following variables of interest • Blood glucose, fasting • Hemoglobin A1c as % of total hemoglobin • Hemoglobin, blood • Hematocrit, blood
Patients with at least 1 pre- (up to 60 days prior) and 1 post- (up to 6 months after) EPO treatment measurements were considered for analysis. Number of patients meeting this criterion varied in numbers for different variables and time zones. Patients who were on EPO medication and also had mean HbA1c value of 6.0 or higher were considered as diabetic.

[10] = cited from earlier work
DIO mice [11] = test: hematology (hemoglobin, reticulocytes) in DIO mice; assay type: in vivo; conditions: DIO mice, 0.03, 0.1, 0.3 mg/kg i.v., five days after dosing
Protocol: as §3, §4, §5, §5

[12] = listed as EMP-hinge core mimetibody
[13] = UT-7/EPO cells, viability 48 hours after treatment
[14] = baseline HbA1C 7%-8% (7.38%), first month
[15] = baseline HbA1C 8%-9% (8.35%), first month
[16] = baseline HbA1C >9% (10.18), first month
[17] = longitudinal patients, baseline under 126 mg/dL (102 mg/dL)

**Q.** With CERA: Roche's pegylated epoetin as the substance, how does the “half-life compared with epoetin / EPO” value [1] read?
**A.** Its value is “longer half life”.

**Q.** With “EMP-1: 20 amino acid peptide with no sequence homology to HuEPO that activates the EPO receptor as a dimer (GGTYSCHFGPLTWVCKPQGG)” as the substance, how does the ex-vivo half-life [2] read?
**A.** Its ex-vivo half-life is 8 h.

**Q.** And the “competition with 125I-labeled EPO for binding to the EPO receptor” value (EPO receptor)?
**A.** The value was “competes”.

**Q.** For “EMP-Hinge core mimetibody: V-EMP-1-linker-hinge core-CH2-CH3 construct of IgG1 or IgG4 subclass, SEQ ID NOS: 82-89 (QIQGGTYSCHFGPLTWVCKPQGG; cysteine pairing not given here; also: fused via linker to hinge core-CH2-CH3 of IgG1 or IgG4)”, which “duration of response compared to rHuEPO” value (normal mice) is on record?
**A.** The value was “prolonged”.

**Q.** And the “maximal response (hematocrit) compared to rHuEPO” value (normal mice)?
**A.** Its value is “higher maximal response”.

**Q.** What about the “duration of response compared to rHuEPO” value (normal mice; [12]) of the same substance?
**A.** The value was “maintained for a longer period”.

**Q.** And the “maximal response (hematocrit) compared to rHuEPO” value (normal mice; [12])?
**A.** The value was “significantly higher maximal hematocrit”.

**Q.** What about the “approximate half-life relative to rHuEPO” value [3] of the same substance?
**A.** The value was “at least several times that of rHuEPO”.

**Q.** And the complement lysis [4]?
**A.** Its complement lysis is “does not mediate complement lysis”.

**Q.** And the “potency on a molar basis, fold greater than the EMP-1 peptide” value [5, 13]?
**A.** The value was 500 fold.

**Q.** What about the “potency on a molar basis, fold less than rHuEPO” value [5, 13] of the same substance?
**A.** Its value is 5 fold.

**Q.** And the “potency on a molar basis, fold greater than the EMP-1 peptide” value ([5]; UT-7/EPO cells, viability 48 hours after treatment, listed as EMP-hinge core mimetibody)?
**A.** Its value is “more than 500 fold”.

**Q.** And the “activity compared with rHuEPO” value [5]?
**A.** Its value is “in the range of rHuEPO”.

**Q.** What about the “activity compared with rHuEPO” value [5, 12] of the same substance?
**A.** The value was “substantially similar to recombinant HuEPO”.

**Q.** What does the source list for “EPO: glycoprotein hormone of 165 amino acids and four carbohydrate chains, primary regulator of erythropoiesis”?
**A.** fasting blood glucose (DIO mice [6]): no statistically significant reduction; glucose tolerance (IPGTT) (DIO mice [7]; 0.03 mg/kg i.v.): modest improvement; glucose tolerance (IPGTT) (DIO mice [7]; 0.3 mg/kg i.v.): modest improvement; blood triglyceride, total cholesterol and LDL levels [8]: concomitant improvement; insulin resistance [8]: improve insulin resistance; decline in HbA1C level ([9]; baseline HbA1C 6.0%-7.0%): no decline; HbA1C level after EPO [9, 14]: 6.99%; decline in HbA1C level [9, 14]: 0.39%; HbA1C level after EPO [9, 15]: 7.51%; decline in HbA1C level [9, 15]: 0.84%; HbA1C level after EPO [9, 16]: 8.49%; decline in HbA1C level [9, 16]: approximately 1.69%; HbA1C level after EPO ([9]; longitudinal dataset, baseline HbA1C 7-8% (7.47%), first 3 months): 7.01%; magnitude of HbA1C decline ([9]; longitudinal dataset, baseline HbA1C 7-8% (7.47%)): 0.46%; further HbA1C change ([9]; longitudinal dataset, baseline HbA1C 7-8%, next 3 months): no significant further change; HbA1C level after EPO ([9]; longitudinal dataset, baseline HbA1C >8 (9.41%), first 3 months): 8.46%; magnitude of HbA1C decline ([9]; longitudinal dataset, baseline HbA1C >8 (9.41%)): 0.95%; further HbA1C change ([9]; longitudinal dataset, baseline HbA1C >8, next 3 month period): no further decline; fasting blood glucose after EPO ([9]; longitudinal patients, baseline FBG>126 mg/dL (173 mg/dL)): 145 mg/dL; decline in fasting blood glucose, average ([9]; longitudinal patients, baseline FBG>126 mg/dL (173 mg/dL), entire time course): 28 mg/dL; decline in FBG level ([9]; longitudinal patients, baseline under 126 mg/dL): do not show any decline; increase in FBG at the end of the time course [9, 17]: 5 mg/dL; fasting blood glucose after EPO [9, 17]: 107 mg/dL; HbA1C level drop, average ([9]; patients with baseline HbA1C above 6.0, first month after EPO administration): 0.5%; decrease in fasting blood glucose concentration ([9]; patients with baseline HbA1C above 6.0, maximum decline over a 4 month period): approximately 30 mg.dL; improvement in hemoglobin ([9]; patients, clinical data): < 1%; Hemoglobin level ([9]; patients, over a 3 month period after initial EPO administration, then plateau): increases steadily; time to peak serum levels ([10]; subcutaneous administration): 5 to 24 h; time detectable plasma levels are maintained ([10]; within the therapeutic dose range): at least 24 hours; hemoglobin (DIO mice [11]): not significantly elevated; reticulocytes (DIO mice [11]): significantly increased in a dose dependent manner
